Measurements taken from patent US11203601B2, “Tricyclic compounds as glycogen synthase kinase 3 (GSK3) inhibitors and uses thereof” (The Broad Institute, Inc., priority 2017, dated 2021).

Experiments:
Test in all cases: Carna kinome panel
Assay type in all cases: biochemical
CDC2/CycB1 = CDC2/CycB1 (Homo sapiens (Human), UniProt P06493); conditions: read-out: % Inhibition at 10 μM of the test compound
EPHB2 = EPHB2 (Homo sapiens (Human), UniProt P29323); conditions: read-out: % Inhibition at 10 μM of the test compound
CSK = CSK (Homo sapiens (Human), UniProt P41240); conditions: read-out: % Inhibition at 10 μM of the test compound
BRAF(V600E)_Cascade = BRAF(V600E)_Cascade (Homo sapiens (Human), UniProt P15056, V600E); conditions: read-out: % Inhibition at 10 μM of the test compound
p38β = p38β (Homo sapiens (Human), UniProt Q15759); conditions: read-out: % Inhibition at 10 μM of the test compound
Sequence of p38β (Q15759 whole entry, looked up): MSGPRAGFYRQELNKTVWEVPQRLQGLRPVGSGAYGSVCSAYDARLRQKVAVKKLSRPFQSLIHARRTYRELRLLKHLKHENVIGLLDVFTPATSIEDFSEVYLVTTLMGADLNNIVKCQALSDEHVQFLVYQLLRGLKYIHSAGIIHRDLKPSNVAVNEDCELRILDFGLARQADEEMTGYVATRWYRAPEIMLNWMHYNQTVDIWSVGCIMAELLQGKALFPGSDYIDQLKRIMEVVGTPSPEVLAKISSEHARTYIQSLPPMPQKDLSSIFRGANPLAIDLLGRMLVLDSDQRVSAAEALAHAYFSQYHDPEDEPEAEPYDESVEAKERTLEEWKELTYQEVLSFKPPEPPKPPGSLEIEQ

SRPK2 = SRPK2 (Homo sapiens (Human), UniProt P78362); conditions: read-out: % Inhibition at 10 μM of the test compound
FLT3 = FLT3 (Homo sapiens (Human), UniProt P36888); conditions: read-out: % Inhibition at 10 μM of the test compound
PAK5 = PAK5 (Homo sapiens (Human), UniProt Q9P286); conditions: read-out: % Inhibition at 10 μM of the test compound
NuaK2 = NuaK2 (Homo sapiens (Human), UniProt Q9H093); conditions: read-out: % Inhibition at 10 μM of the test compound
Sequence of NuaK2 (Q9H093 whole entry, species assumed): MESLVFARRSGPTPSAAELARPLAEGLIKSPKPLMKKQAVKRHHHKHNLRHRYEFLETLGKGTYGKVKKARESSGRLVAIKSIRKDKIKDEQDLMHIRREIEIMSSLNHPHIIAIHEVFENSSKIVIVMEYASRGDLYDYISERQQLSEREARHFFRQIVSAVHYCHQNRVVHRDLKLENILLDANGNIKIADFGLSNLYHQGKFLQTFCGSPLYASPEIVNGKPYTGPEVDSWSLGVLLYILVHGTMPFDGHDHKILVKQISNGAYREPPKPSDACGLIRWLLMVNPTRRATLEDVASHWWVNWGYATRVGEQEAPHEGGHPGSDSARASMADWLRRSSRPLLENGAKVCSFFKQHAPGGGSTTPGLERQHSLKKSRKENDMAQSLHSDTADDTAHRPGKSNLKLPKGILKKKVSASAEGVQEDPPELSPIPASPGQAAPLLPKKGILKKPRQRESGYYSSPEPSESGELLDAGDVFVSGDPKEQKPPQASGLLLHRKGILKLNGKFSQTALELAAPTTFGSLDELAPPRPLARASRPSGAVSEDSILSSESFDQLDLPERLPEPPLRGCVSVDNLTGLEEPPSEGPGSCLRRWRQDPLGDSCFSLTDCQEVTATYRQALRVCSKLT

MST3 = MST3 (Homo sapiens (Human), UniProt Q9Y6E0); conditions: read-out: % Inhibition at 10 μM of the test compound
FGFR2 = FGFR2 (Homo sapiens (Human), UniProt P21802); conditions: read-out: % Inhibition at 10 μM of the test compound
RET(S891A) = RET(S891A) (Homo sapiens (Human), UniProt P07949, S891A); conditions: read-out: % Inhibition at 10 μM of the test compound
Sequence of RET(S891A) (P07949 29-1114 S891A, species assumed): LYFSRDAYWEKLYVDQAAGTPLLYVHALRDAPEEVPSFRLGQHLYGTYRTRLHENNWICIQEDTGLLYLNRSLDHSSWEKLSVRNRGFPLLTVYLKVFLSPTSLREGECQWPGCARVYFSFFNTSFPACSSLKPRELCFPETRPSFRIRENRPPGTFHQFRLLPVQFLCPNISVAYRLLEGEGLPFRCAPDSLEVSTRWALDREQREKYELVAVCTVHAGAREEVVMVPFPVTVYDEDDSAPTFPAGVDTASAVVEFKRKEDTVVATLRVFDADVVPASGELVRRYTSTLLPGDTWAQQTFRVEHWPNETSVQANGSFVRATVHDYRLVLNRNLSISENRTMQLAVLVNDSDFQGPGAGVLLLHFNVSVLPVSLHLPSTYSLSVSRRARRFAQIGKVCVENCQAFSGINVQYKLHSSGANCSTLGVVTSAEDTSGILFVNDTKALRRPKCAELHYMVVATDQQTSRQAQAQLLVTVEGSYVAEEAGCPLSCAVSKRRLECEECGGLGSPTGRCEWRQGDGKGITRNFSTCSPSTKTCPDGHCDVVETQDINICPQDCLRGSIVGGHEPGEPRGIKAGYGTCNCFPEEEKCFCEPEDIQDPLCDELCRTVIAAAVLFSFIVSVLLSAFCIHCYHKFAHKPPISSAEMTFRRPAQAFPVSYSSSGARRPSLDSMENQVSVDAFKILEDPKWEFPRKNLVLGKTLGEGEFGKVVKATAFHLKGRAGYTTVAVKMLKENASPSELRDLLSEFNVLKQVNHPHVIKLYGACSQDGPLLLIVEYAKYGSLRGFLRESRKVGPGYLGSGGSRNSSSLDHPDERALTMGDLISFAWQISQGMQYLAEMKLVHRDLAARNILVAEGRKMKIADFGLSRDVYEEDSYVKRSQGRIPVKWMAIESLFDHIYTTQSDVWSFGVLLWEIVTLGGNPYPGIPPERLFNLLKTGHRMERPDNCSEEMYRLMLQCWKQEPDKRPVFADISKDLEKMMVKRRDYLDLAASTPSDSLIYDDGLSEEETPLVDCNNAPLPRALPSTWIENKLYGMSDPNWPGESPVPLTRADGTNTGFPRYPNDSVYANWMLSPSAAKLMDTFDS

MSSK1 = MSSK1 (Homo sapiens (Human), UniProt Q9UPE1); conditions: read-out: % Inhibition at 10 μM of the test compound
PKD1 = PKD1 (Homo sapiens (Human), UniProt Q15139); conditions: read-out: % Inhibition at 10 μM of the test compound
CLK2 = CLK2 (Homo sapiens (Human), UniProt P49760); conditions: read-out: % Inhibition at 10 μM of the test compound
NEK2 = NEK2 (Homo sapiens (Human), UniProt P51955); conditions: read-out: % Inhibition at 10 μM of the test compound
MSK2 = MSK2 (Homo sapiens (Human), UniProt O75676); conditions: read-out: % Inhibition at 10 μM of the test compound
PIM1 = PIM1 (Homo sapiens (Human), UniProt P11309); conditions: read-out: % Inhibition at 10 μM of the test compound
ARG = ARG (Homo sapiens (Human), UniProt P42684); conditions: read-out: % Inhibition at 10 μM of the test compound
HER2 = HER2 (Homo sapiens (Human), UniProt P04626); conditions: read-out: % Inhibition at 10 μM of the test compound
Sequence of HER2 (P04626 23-1255): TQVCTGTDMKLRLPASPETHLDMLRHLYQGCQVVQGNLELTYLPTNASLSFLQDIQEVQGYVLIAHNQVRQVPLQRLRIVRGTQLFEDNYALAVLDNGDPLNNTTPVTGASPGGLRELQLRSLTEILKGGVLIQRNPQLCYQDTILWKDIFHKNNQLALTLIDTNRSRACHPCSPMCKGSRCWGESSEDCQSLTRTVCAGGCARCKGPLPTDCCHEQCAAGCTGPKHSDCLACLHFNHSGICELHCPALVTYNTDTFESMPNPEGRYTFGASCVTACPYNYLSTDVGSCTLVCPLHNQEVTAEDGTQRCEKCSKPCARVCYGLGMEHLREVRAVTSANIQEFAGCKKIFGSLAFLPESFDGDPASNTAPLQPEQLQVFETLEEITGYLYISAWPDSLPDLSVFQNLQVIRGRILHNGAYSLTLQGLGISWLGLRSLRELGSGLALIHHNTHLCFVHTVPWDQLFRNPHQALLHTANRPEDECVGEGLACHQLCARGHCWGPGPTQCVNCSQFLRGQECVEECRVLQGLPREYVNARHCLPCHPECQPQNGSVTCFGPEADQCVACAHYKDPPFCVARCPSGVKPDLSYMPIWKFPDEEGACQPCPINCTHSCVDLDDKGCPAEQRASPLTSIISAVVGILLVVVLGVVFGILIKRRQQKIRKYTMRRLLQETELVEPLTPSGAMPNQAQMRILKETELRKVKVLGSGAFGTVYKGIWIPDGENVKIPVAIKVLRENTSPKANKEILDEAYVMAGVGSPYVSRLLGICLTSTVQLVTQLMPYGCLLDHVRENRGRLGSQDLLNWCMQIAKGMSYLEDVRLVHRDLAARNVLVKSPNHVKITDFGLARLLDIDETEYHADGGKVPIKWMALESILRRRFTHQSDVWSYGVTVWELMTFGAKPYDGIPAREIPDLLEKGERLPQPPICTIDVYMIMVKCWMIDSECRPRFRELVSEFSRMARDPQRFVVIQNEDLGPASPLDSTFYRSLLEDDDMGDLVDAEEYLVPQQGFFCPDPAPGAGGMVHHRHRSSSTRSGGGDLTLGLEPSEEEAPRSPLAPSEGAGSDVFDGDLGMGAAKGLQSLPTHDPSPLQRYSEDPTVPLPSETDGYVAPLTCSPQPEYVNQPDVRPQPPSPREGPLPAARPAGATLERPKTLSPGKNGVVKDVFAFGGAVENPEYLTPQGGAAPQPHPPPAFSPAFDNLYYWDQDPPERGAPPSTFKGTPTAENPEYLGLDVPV

MAP3K1_Cascade = system: MAP3K1_Cascade
Procedure: Briefly, a selection of compounds was screened against a panel of kinases at a single concentration of 10 μM. […] This was completed using one of two assays, depending on the kinase being examined: 1) IMAP Assay. A solution of 4× inhibitor, 4× substrate/ATP/metal solution and 2× kinase solution was prepared with assay buffer (20 mM HEPES, 0.01% Tween-20, 2 mM DTT, pH 7.4) and mixed, then incubated in 384-well black plates for 1 hour at room temperature. The IMAP binding reagent (IMAP Screening Express kit; Molecular Devices) was added to each well and incubated for 30 minutes. […] 2) Off-Chip Mobility Shift Assay (MSA). A solution of 4× inhibitor, 4× substrate/ATP/metal solution and 2× kinase solution was prepared with assay buffer (20 mM HEPES, 0.01% Triton X-100, 2 mM DTT, pH 7.5) and mixed, then incubated in 384-well plates for 1 or 5 hours depending on the kinase, at room temperature. Termination buffer (QuickScout Screening assist MSA; Carna Biosciences) was added to each well. The entire reaction mixture was then applied to a LabChip3000 system (Caliper Life Science), and the product and substrate peptide peaks were separated and quantified. […] The entire reaction mixture was then applied to a LabChip3000 system (Caliper Life Science), and the product and substrate peptide peaks were separated and quantified.

RET = RET (Homo sapiens (Human), UniProt P07949); conditions: read-out: % Inhibition at 10 μM of the test compound
Sequence of RET (P07949 29-1114): as the sequence (P07949 29-1114 S891A, species assumed) above, with A863S counted along it

HIPK3 = HIPK3 (Homo sapiens (Human), UniProt Q9H422); conditions: read-out: % Inhibition at 10 μM of the test compound
HCK = HCK (Homo sapiens (Human), UniProt P08631); conditions: read-out: % Inhibition at 10 μM of the test compound
Sequence of HCK (P08631 whole entry): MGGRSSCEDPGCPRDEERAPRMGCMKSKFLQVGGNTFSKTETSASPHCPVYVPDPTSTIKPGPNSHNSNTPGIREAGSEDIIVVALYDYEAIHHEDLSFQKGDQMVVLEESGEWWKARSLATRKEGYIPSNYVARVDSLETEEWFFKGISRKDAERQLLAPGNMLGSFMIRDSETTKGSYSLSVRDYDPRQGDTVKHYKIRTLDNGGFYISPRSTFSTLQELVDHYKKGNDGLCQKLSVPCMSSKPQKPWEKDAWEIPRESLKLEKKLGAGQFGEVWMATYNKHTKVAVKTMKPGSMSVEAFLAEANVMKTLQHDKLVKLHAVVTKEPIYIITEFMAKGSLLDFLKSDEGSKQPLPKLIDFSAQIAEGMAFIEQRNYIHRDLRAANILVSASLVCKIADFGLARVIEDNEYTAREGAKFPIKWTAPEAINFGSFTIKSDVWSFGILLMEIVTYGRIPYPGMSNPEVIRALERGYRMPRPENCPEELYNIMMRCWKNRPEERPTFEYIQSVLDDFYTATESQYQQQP

NEK7 = NEK7 (Homo sapiens (Human), UniProt Q8TDX7); conditions: read-out: % Inhibition at 10 μM of the test compound
Sequence of NEK7 (Q8TDX7 whole entry): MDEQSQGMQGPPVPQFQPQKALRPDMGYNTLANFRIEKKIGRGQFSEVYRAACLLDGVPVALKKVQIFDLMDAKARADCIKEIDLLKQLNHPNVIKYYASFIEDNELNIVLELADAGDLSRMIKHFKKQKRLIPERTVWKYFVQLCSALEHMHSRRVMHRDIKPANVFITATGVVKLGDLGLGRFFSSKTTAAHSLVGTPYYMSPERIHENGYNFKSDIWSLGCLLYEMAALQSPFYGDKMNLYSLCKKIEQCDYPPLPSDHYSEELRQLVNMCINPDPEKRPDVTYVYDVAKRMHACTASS

HER4 = HER4 (Homo sapiens (Human), UniProt Q15303); conditions: read-out: % Inhibition at 10 μM of the test compound
AKT3 = AKT3 (Homo sapiens (Human), UniProt Q9Y243); conditions: read-out: % Inhibition at 10 μM of the test compound
Sequence of AKT3 (Q9Y243 whole entry): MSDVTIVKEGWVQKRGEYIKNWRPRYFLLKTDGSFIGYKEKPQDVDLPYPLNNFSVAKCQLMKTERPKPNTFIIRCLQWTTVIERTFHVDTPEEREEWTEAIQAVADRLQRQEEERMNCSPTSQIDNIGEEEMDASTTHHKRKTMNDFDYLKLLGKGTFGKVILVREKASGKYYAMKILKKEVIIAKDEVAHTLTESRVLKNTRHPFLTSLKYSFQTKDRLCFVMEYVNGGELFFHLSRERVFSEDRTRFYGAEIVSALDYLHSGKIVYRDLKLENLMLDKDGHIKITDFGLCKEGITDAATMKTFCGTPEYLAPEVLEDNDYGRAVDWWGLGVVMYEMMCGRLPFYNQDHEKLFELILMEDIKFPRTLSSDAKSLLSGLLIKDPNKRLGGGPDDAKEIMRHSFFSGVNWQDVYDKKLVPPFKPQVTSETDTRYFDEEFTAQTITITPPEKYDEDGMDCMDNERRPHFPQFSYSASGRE

RSK4 = RSK4 (Homo sapiens (Human), UniProt Q9UK32); conditions: read-out: % Inhibition at 10 μM of the test compound
EPHB3 = EPHB3 (Homo sapiens (Human), UniProt P54753); conditions: read-out: % Inhibition at 10 μM of the test compound
TSSK1 = TSSK1 (Homo sapiens (Human), UniProt Q9BXA7); conditions: read-out: % Inhibition at 10 μM of the test compound
ALK(L1196M) = ALK(L1196M) (Homo sapiens (Human), UniProt Q9UM73, L1196M); conditions: read-out: % Inhibition at 10 μM of the test compound
CaMK4 = CaMK4 (Homo sapiens (Human), UniProt Q16566); conditions: read-out: % Inhibition at 10 μM of the test compound
DYRK1A = DYRK1A (Homo sapiens (Human), UniProt Q13627); conditions: read-out: % Inhibition at 10 μM of the test compound
TAOK2 = TAOK2 (Homo sapiens (Human), UniProt Q9UL54); conditions: read-out: % Inhibition at 10 μM of the test compound
EGFR(d746-750) = EGFR(d746-750) (Homo sapiens (Human), UniProt P00533, DEL746-750); conditions: read-out: % Inhibition at 10 μM of the test compound
JAK1 = JAK1 (Homo sapiens (Human), UniProt P23458); conditions: read-out: % Inhibition at 10 μM of the test compound
IRAK1 = IRAK1 (Homo sapiens (Human), UniProt P51617); conditions: read-out: % Inhibition at 10 μM of the test compound
PKCβ2 = PKCβ2 (Homo sapiens (Human), UniProt P05771); conditions: read-out: % Inhibition at 10 μM of the test compound
EGFR(T790M) = EGFR(T790M) (Homo sapiens (Human), UniProt P00533, T790M); conditions: read-out: % Inhibition at 10 μM of the test compound
MAPKAPK3 = MAPKAPK3 (Homo sapiens (Human), UniProt Q16644); conditions: read-out: % Inhibition at 10 μM of the test compound
Sequence of MAPKAPK3 (Q16644 whole entry): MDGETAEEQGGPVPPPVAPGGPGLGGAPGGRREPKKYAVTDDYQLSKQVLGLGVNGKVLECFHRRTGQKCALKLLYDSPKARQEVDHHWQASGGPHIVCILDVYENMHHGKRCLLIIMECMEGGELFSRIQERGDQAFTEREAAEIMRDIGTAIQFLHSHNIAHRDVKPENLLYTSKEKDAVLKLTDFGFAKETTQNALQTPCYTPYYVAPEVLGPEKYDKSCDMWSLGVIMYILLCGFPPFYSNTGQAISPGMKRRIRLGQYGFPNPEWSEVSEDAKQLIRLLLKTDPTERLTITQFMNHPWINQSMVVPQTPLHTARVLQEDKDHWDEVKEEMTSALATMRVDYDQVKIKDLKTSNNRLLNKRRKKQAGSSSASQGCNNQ

## CCC1(c2ccccc2)C2=C(CC(C)(C)CC2=O)Nc2ncsc21 (stereo not shown) [Compound 1, 9-Ethyl-6,6-dimethyl-9-phenyl-5,6,7,9-tetrahydrothiazolo[4,5-b]quinolin-8(4H)-one]
CDC2/CycB1
  inhibition at 10 µM: 22.7%
EPHB2
  inhibition at 10 µM: 14.5%
CSK
  inhibition at 10 µM: 6.1%
BRAF(V600E)_Cascade
  inhibition at 10 µM: 6.1%
p38β
  inhibition at 10 µM: 3.8%
SRPK2
  inhibition at 10 µM: 3.1%
FLT3
  inhibition at 10 µM: 2.9%
PAK5
  inhibition at 10 µM: 2.9%
NuaK2
  inhibition at 10 µM: 1.5%
MST3
  inhibition at 10 µM: 1.4%
FGFR2
  inhibition at 10 µM: 1.4%
RET(S891A)
  inhibition at 10 µM: 1.4%
MSSK1
  inhibition at 10 µM: 1.2%
PKD1
  inhibition at 10 µM: 1%
CLK2
  inhibition at 10 µM: 0.9%
NEK2
  inhibition at 10 µM: 0.9%
MSK2
  inhibition at 10 µM: 0.7%
PIM1
  inhibition at 10 µM: 0%
ARG
  inhibition at 10 µM: -0.6%
HER2
  inhibition at 10 µM: -1%
MAP3K1_Cascade
  % Inhibition at 10 μM of the test compound: −1.0%
RET
  inhibition at 10 µM: -1.9%
HIPK3
  inhibition at 10 µM: -1.9%
HCK
  inhibition at 10 µM: -3%
NEK7
  inhibition at 10 µM: -3.9%
HER4
  inhibition at 10 µM: -4%
AKT3
  inhibition at 10 µM: -4.5%
RSK4
  inhibition at 10 µM: -4.6%
EPHB3
  inhibition at 10 µM: -4.8%
TSSK1
  inhibition at 10 µM: -5%
ALK(L1196M)
  inhibition at 10 µM: -5.2%
CaMK4
  inhibition at 10 µM: -5.4%
DYRK1A
  inhibition at 10 µM: -5.8%
TAOK2
  inhibition at 10 µM: -5.9%
EGFR(d746-750)
  inhibition at 10 µM: -6.1%
JAK1
  inhibition at 10 µM: -6.4%
IRAK1
  inhibition at 10 µM: -8.9%
PKCβ2
  inhibition at 10 µM: -10.7%
EGFR(T790M)
  inhibition at 10 µM: -13.8%
MAPKAPK3
  inhibition at 10 µM: -15.5%
